# Assay: rat tail flick assay (nociceptive reaction latency)
# Type: in vivo
# Conditions: ifenprodil IN 1 mg/rat + morphine IP 6 mg/kg, given 30 min before the test, Student's t test P<0.05 vs morphine group
# Procedure: In FIG. 1, results are expressed as mean±sem for 6 experiments, which are (from left to right): vehicle, morphine (6 mg/kg), vehicle, ifenprodil (1 mg/rat), vehicle IN+vehicle IP, and ifenprodil IN (1 mg/rat)+morphine IP (6 mg/kg). • vehicle: 90% saline 10% propylene glycol • vehicle and morphine were given intraperitoneally 30 min. before the test • vehicle and ifenprodil were given intranasally 30 min. before the test • n=10 rats per group • student's T test: * indicates a significant difference in comparison to the vehicle group for P<0.05 • student's T test: † indicates a significant difference in comparison to the morphine group for P<0.05
smiles,measurement,value
CC(C(O)c1ccc(O)cc1)N1CCC(Cc2ccccc2)CC1 (stereo not shown) [ifenprodil],potentiation of morphine analgesia (nociceptive reaction latency),potentiates morphine when administered intranasally
